Results: US10314883B2, “Compositions and methods for regulating blood pressure” (University of Virginia Patent Foundation, priority 2015, dated 2019)
Read-outs that look alike come from different tables or passages of the source.

How the values were obtained:
[1] = test system: abdominal aortic rings; assay: Wire myography of abdominal aortic rings; format: cell-based, mouse; conditions: for EC50: Mus musculus, read-out: EC50 of phenylephrine, aortic ring contraction
[2] = test system: thoracodorsal arteries (TDA); assay: tissue or blood; conditions: Mus musculus
[3] = test system: thoracodorsal arteries (TDA)
[4] = test system: thoracodorsal arteries (TDA); assay: Pressure myography: agonist-induced constriction of pressurized TDAs from C57Bl/6 mice with pannexin inhibitors or Panx1 mimetic peptides; format: cell-based, mouse; conditions: for effect on phenylephrine-induced constriction of pressurized TDAs: TAT-linked peptides
Procedure: The contractile responses of pressurized thoracodorsal arteries (TDA) were measured as previously described. Briefly, TDA were isolated and placed in cold Krebs-HEPES until cannulation in a pressure arteriograph (Danish MyoTechnology). After a 30 minute equilibration period, cumulative concentrations of contractile agonists were applied to the TDA pressurized at 80 mmHg, and the vessel was visualized with an Olympus IX-71 microscope attached to a Hamamatsu EM-CCD camera coupled to Slidebook imaging software. […] Lastly, maximal diameter was measured at the end of each experiment in calcium-free Krebs-HEPES supplemented with EGTA (1 mmol/L) and sodium nitroprusside (10 μmol/L). In cases where the vessels were not constricting to the contractile agonist, their viability was assessed by applying 40 mM KCl and only TDA reaching 30% of the maximal diameter were considered for analysis. The contractile responses, as well as the basal tone, are expressed as a percentage of the maximal diameter.
Using pressure arteriography on TDA dissected from C57Bl/6 mice (as described; and aortic ring contraction, as described), we measured the effect of pannexin inhibitors, probenecid and 10Panx1, on the contractile response upon stimulation with different vasoconstrictors: phenylephrine (FIG. 1A), noradrenaline (also called norepinephrine) (FIG. 1B), serotonin (also known as 5-HT) (FIG. 1C) and endothelin-1 (FIG. 1D). […] In contrast, ^10Panx1 and probenecid had no effect on contraction of TDA measured in response to cumulative concentrations of serotonin or endothelin-1 (FIGS. 1C-D; Table 1).
To determine the region of Panx1 necessary for channel activation in response to α1AR stimulation, we produced short peptides derived from the intracellular regions of the Panx1 channel. We generated two peptides mimicking unique mouse Panx1 (mPanx1) sequences in the first intracellular loop (IL1 and IL2) and two peptides mimicking unique mPanx1 sequences in the C-terminal region, one in second intracellular loop (CT1) and one in the C-terminal tail (CT2) (FIG. 4A scissors indicate caspase 3 cleavage site; Table 3). All peptides also contained a TAT sequence to facilitate entry into cells and we verified the intracellular localization of each peptide by immunofluorescence detection of the TAT sequence in TDAs pre-incubated with each peptide (FIG. 7A). We tested the effect of each peptide on phenylephrine-induced contractile responses in pressurized TDAs from C57Bl/6 mice (FIGS. 4B-E). […] Note that these differences in effects of phenylephrine were similar in magnitude to those observed in arteries from SMC-specific Panx1-knockout mice and littermate controls (FIG. 2C, Table 2).

[5] = test system: C57Bl/6 mice; assay: Blood pressure by radiotelemetry after peptide injection; format: in vivo, mouse; conditions: conscious C57Bl/6 mice, acute intraperitoneal injection, within 1.5 hours; 5 mg/kg or 20 mg/kg
Procedure: Blood pressure was measured using radiotelemetry units (Data Sciences International, DSI) implanted in C57Bl/6, Cre^−/Panx1^F1, Cre^−/Panx1^WT, Cre^+/Panx1^WT, and Cre^+/Panx1^F1 mice. The catheter of a radiotelemetry unit (TA11PA-C10, DSI) was implanted in the mouse left carotid artery under isoflurane anesthesia, and the catheter was tunneled trough the radiotransmitter placed in a subcutaneous pouch along the right flank of the mouse, as previously described. After implantation, mice were allowed to recover for seven days.
[…] Blood pressure was recorded for another 1.5 hours, and the mean arterial pressure data from 1 to 1.5 hours post injection was averaged and compared to the basal blood pressure. The ΔMAP was calculated by subtracting the average mean arterial pressure measured for 30 minutes prior to injection to the mean arterial pressure measured for 30 minutes one hour post injection. […]
Based on the central role of α1AR signaling in blood pressure homeostasis, we evaluated the effect of Panx1 deletion on systemic blood pressure. Blood pressure was measured using radiotelemetry units as previously described by us. Blood pressure was measured on the conditional KO mouse model for five days before proceeding to tamoxifen injections, and for another five days 24 hours after the last tamoxifen injection. […]

[6] = test system: mice; assay: Cecal ligation puncture (CLP) model of sepsis; format: in vivo, mouse
Description: Knockout of Panx1 specifically from the endothelium or treatment of mice with PanX both reversed the decreased in heat rate typically observed after induction of sepsis. […] Knockout of Panx1 specifically from the endothelium or treatment of mice with PanX both reversed the increased level of blood urea nitrogen, which is due in large part to increased vein permeability in sepsis. The three groups in each graph are Control (left bar), Panx1 Endothelial Cell Knockout Mouse (middle bar), and Control+IL2 (PanX) Peptide treatment.

[7] = test system: resistance arterioles; assay: Diameter of resistance arterioles isolated from adipose tissue of hypertensive subjects; format: cell-based, human; conditions: arterioles from treatment resistant hypertension patients
Description: The resistance arterioles were isolated from adipose tissue. Treatment resistant hypertension: >3 continue to have high blood pressure.

[8] = aortic rings from Cre^+/Panx1^FL with tamoxifen
[9] = aortic rings from Cre^+/Panx1^FL, peanut oil
[10] = in presence of the named peptide

With CNC[C@H](O)c1cccc(O)c1 [Phenylephrine, phenylephrine] the EC50 [1, 8] was 3.2 ± 0.32 µM, the EC50 [1, 9] was 3.39 ± 0.38 µM and the “EMAX of phenylephrine, aortic ring contraction” value [1, 8] was 343.4 ± 69.4 percentage of constriction to KCl. The “EMAX of phenylephrine, aortic ring contraction” value [1, 9] was 368.8 ± 78.7 percentage of constriction to KCl, the EC50 ([2]; read-out: EC50 of agonist for TDA constriction, TDAs from Cre^+/Panx1^FL mice, tamoxifen-injected (SMC Panx1 knockout)) was 7.84 ± 5.6 µM and the EC50 ([2]; read-out: EC50 of agonist for TDA constriction, TDAs from Cre^+/Panx1^WT mice, tamoxifen-injected) was 1.79 ± 1.13 µM. For the same molecule, the EC50 ([2]; read-out: EC50 of agonist for TDA constriction, TDAs from Cre^−/Panx1^FL mice, tamoxifen-injected) was 0.64 ± 0.37 µM, the EC50 ([2]; read-out: EC50 of agonist for TDA constriction, TDAs from Cre^−/Panx1^WT mice, tamoxifen-injected) was 0.66 ± 0.13 µM and the “EMAX of agonist for TDA constriction” value ([3]; TDAs from Cre^+/Panx1^FL mice, tamoxifen-injected (SMC Panx1 knockout)) was 69.1 ± 3.06 percentage of maximal diameter. For the same molecule, the “EMAX of agonist for TDA constriction” value ([3]; TDAs from Cre^+/Panx1^FL mice, tamoxifen-injected (SMC Panx1 knockout), listed as phenylephrine) was 69.1±3.06 percentage of maximal diameter, the “EMAX of agonist for TDA constriction” value ([3]; TDAs from Cre^+/Panx1^WT mice, tamoxifen-injected) was 53.5 ± 4.91 percentage of maximal diameter and the “EMAX of agonist for TDA constriction” value ([3]; TDAs from Cre^−/Panx1^FL mice, tamoxifen-injected) was 46.3 ± 5.94 percentage of maximal diameter. The “EMAX of agonist for TDA constriction” value ([3]; TDAs from Cre^−/Panx1^WT mice, tamoxifen-injected) was 51.8 ± 2.66 percentage of maximal diameter and the “EMAX of agonist for TDA constriction” value ([3]; TDAs isolated from the three control genotypes) was “approximately 50 % of maximal diameter”.
With KYPIVEQYLKYGRKKQRRR [IL2] the “effect on noradrenaline-induced constriction” value ([4]; C57Bl/6 TDAs) was “inhibited”, the “effect on phenylephrine-induced constriction of pressurized TDAs” value ([4]; C57Bl/6 TDAs) was “significantly decreased” and the “EMAX of endothelin-1 for TDA constriction” value [4, 10] was 41.9 ± 3.73 percentage of maximal diameter. For the same molecule, the “EMAX of noradrenaline for TDA constriction” value [4, 10] was 53.4 ± 7.00 percentage of maximal diameter, the “EMAX of phenylephrine for TDA constriction” value [4, 10] was 68.6 ± 5.11 percentage of maximal diameter and the “EMAX of serotonin for TDA constriction” value [4, 10] was 36.7 ± 3.52 percentage of maximal diameter. For the same molecule, the “reduction of mean arterial blood pressure” value [5] was 13.0±3.3 mmHg, the “effect on decreased heart rate after induction of sepsis” value [6] was “reversed” and the “effect on increased blood urea nitrogen after induction of sepsis” value [6] was “reversed”. The “effect on hyperconstriction of resistance arterioles” value [7] was “significantly reduces hyperconstriction”.
“scrambled intracellular loop 2 IYLYVEQKPY (SEQ ID NO: 7) linked with a TAT sequence [Scrambled IL2]” was tested, and the “effect on phenylephrine-induced constriction of pressurized TDAs” value ([4]; C57Bl/6 TDAs) was “no significant effect”, the “EMAX of phenylephrine for TDA constriction” value [4, 10] was 47.5 ± 2.17 percentage of maximal diameter and the “reduction of mean arterial blood pressure” value [5] was “no significant effect”.
